IC50 and viability data for 1 compound are collected here from patent publication US20220105113A1, “CYLODIMER OF DEHYDROSALICORTIN AND DERIVATIVES THEREOF ISOLATED FROM PLANT OF THE GENUS SALIX FOR USE IN CANCER THERAPY” (ROTHAMSTED RESEARCH LTD, priority 2019, published 2022).

What is called viability is a read-out of living cells in per cent, often relative to untreated cells.

Holding throughout (type): cell-based
The test system of one experiment is MCF-7. As to the kind of experiment: MTT dye reduction cell viability assay, MCF-7 breast cancer cell line. Particulars: Homo sapiens, MCF7, MCF-7, MTT 120 h, read-out: Miyabeacin IC50. As for the experimental part:
(§1) The activity of miyabeacin was tested against a range of cancer cell lines including those in neuroblastoma and breast, oesophageal and ovarian cancers (Table 10).
(§2) The MYCN-amplified neuroblastoma cell line UKF-NB-3 was established from a stage 4 neuroblastoma patient (Kotchetkov et al., 2005). Also tested was the vincristine-resistant UKF-NB-3 sub-line UKF-NB-3^rVCR (Rothwell et al., 2010) (adapted to grow in the presence of vincristine 10 ng/mL). At a concentration of 20 μg/mL of miyabeacin, the cell viability, relative to non-treated cells, after 120 hours was 0% for UKF-NB-3 and 4.22±2.89% for the vincristine resistant UKF-NB-3^rVCR line. The oesophageal cancer cell line COLO-680N was obtained from ATCC (Manassas, Va., USA) and the ovarian cancer cell line COLO-704 from DSMZ (Braunschweig, Germany). All cell lines were propagated in Iscove's modified Dulbecco's medium (IMDM) supplemented with 10% FCS, 100 IU/ml penicillin and […] streptomycin at 37° C. […] Cell viability was determined by the 3-(4,5-dimethylthiazol-2-yl)-2,5-diphenyltetrazolium bromide (MTT) dye reduction assay after 120 h incubation as described previously (Michaelis et al., 2015). […] Plates were then read at 600 nm. The relative viability was determined as the relative reduction of the optical density relative to an untreated cell control (=100%).

A further experiment deals with COLO-680N. As to the kind of experiment: MTT dye reduction cell viability assay, COLO-680N oesophageal cancer cell line. Particulars: Homo sapiens. As for the experimental part: as §1
(§3) The MYCN-amplified neuroblastoma cell line UKF-NB-3 was established from a stage 4 neuroblastoma patient (Kotchetkov et al., 2005). Also tested was the vincristine-resistant UKF-NB-3 sub-line UKF-NB-3^rVCR (Rothwell et al., 2010) (adapted to grow in the presence of vincristine 10 ng/mL). At a concentration of 20 μg/mL of miyabeacin, the cell viability, relative to non-treated cells, after 120 hours was 0% for UKF-NB-3 and 4.22±2.89% for the vincristine resistant UKF-NB-3^rVCR line. The oesophageal cancer cell line COLO-680N was obtained from ATCC (Manassas, Va., USA) and the ovarian cancer cell line COLO-704 from DSMZ (Braunschweig, Germany). All cell lines were propagated in Iscove's modified Dulbecco's medium (IMDM) supplemented with 10% FCS, 100 IU/ml penicillin and […] streptomycin at 37° C. Cells were routinely tested for mycoplasma contamination and authenticated by short tandem repeat profiling. Cell viability was determined by the 3-(4,5-dimethylthiazol-2-yl)-2,5-diphenyltetrazolium bromide (MTT) dye reduction assay after 120 h incubation as described previously (Michaelis et al., 2015). Briefly, 5000 cells (suspended in 100 μL IMDM supplemented with 10% FCS, 100 IU/ml penicillin and […] streptomycin) were incubated in 96-well plates at 37° C. and 5% CO2 in the absence or presence of varying compound concentrations for 120 h. Then, 25 μL of MTT solution ([…] dissolved in PBS) were added for 4 h. This was followed by the addition of […] of 20% sodium dodecyl sulphate (50:50 purified water/DMF) solution adjusted to pH 4.7 for an additional 4 h in order to lyse cells and dissolve formazan precipitates. Plates were then read at 600 nm. The relative viability was determined as the relative reduction of the optical density relative to an untreated cell control (=100%).
Background: Tetrazolium dyes change colour on reduction, which living cells bring about.

The next experiment has as its system UKF-NB-3. Briefly: MTT dye reduction cell viability assay, UKF-NB-3 neuroblastoma cell line. The procedure:
as §1, §3

For the next experiment, the system named is UKF-NB-3^rVCR. As to the kind of experiment: MTT dye reduction cell viability assay, vincristine-resistant UKF-NB-3 sub-line. Particulars: 20 μg/mL, after 120 hours, vincristine resistant UKF-NB-3^rVCR; read-out: cell viability, relative to non-treated cells. As for the experimental part: (§4) The MYCN-amplified neuroblastoma cell line UKF-NB-3 was established from a stage 4 neuroblastoma patient (Kotchetkov et al., 2005). Also tested was the vincristine-resistant UKF-NB-3 sub-line UKF-NB-3^rVCR (Rothwell et al., 2010) (adapted to grow in the presence of vincristine 10 ng/mL). At a concentration of 20 μg/mL of miyabeacin, the cell viability, relative to non-treated cells, after 120 hours was 0% for UKF-NB-3 and 4.22±2.89% for the vincristine resistant UKF-NB-3^rVCR line. The oesophageal cancer cell line COLO-680N was obtained from ATCC (Manassas, Va., USA) and the ovarian cancer cell line COLO-704 from DSMZ (Braunschweig, Germany). All cell lines were propagated in Iscove's modified Dulbecco's medium (IMDM) supplemented with 10% FCS, 100 IU/ml penicillin and […] streptomycin at 37° C. Cells were routinely tested for mycoplasma contamination and authenticated by short tandem repeat profiling. Cell viability was determined by the 3-(4,5-dimethylthiazol-2-yl)-2,5-diphenyltetrazolium bromide (MTT) dye reduction assay after 120 h incubation as described previously (Michaelis et al., 2015). […] Plates were then read at 600 nm. The relative viability was determined as the relative reduction of the optical density relative to an untreated cell control (=100%).

The next experiment concerns EFO-21. As to the kind of experiment: MTT dye reduction cell viability assay, EFO-21 ovarian cancer cell line. Particulars: Homo sapiens, EFO-21, MTT 120 h, read-out: Miyabeacin IC50. As for the experimental part: as §1, §2
The subject of experiment [1] is UKF-NB-3, COLO-680N and COLO-704. Briefly: Replicated IC50 determination (MTT) on three selected lines. Particulars: range of means over UKF-NB-3, COLO-680N and COLO-704. As for the experimental part: as §4
The next experiment deals with COLO-704. As to the kind of experiment: MTT dye reduction cell viability assay, COLO-704 ovarian cancer cell line. The procedure:
as §1, §3

A further experiment deals with BT-474. Briefly: MTT dye reduction cell viability assay, BT-474 breast cancer cell line. Particulars: Homo sapiens, BT-474, MTT 120 h, read-out: Miyabeacin IC50. As for the experimental part: as §1, §2

Structures are written as SMILES. Values after ≈ are worked out from the molar mass of the structure shown. Where two headings read alike, the source gives them in different places.

For the compound `O=C(OCc1ccccc1O[C@H]1OC(CO)[C@H](O)C(O)C1O)[C@@]1(O)C(=O)C2C=CC1C1C2C=CC(=O)[C@]1(O)C(=O)OCc1ccccc1O[C@H]1OC(CO)[C@H](O)C(O)C1O` (stereo partly drawn) [miyabeacin], the IC50 was found to be 2.19 µg/mL (≈ 2.59 µM) in the experiment on MCF-7; 5.08 µg/mL in the experiment with COLO-680N (expt 1, read-out: miyabeacin IC50 concentration expt 1); 15.1 µg/mL in the experiment on COLO-680N (expt 2, read-out: miyabeacin IC50 concentration expt 2); 51.5 µg/mL in the experiment with COLO-680N (expt 3, read-out: miyabeacin IC50 concentration expt 3); 28.3 µM in the experiment on COLO-680N (mean of 3 expts, read-out: IC50 mean); 23.9 µg/mL in the experiment on COLO-680N (mean of 3 expts, read-out: miyabeacin IC50 concentration mean). Moreover, the IC50 in the experiment on COLO-680N (oesophageal, MTT 120 h, read-out: Miyabeacin IC50) was 5.08 µg/mL; with UKF-NB-3 (UKF-NB-3, expt 1, read-out: miyabeacin IC50 concentration expt 1), 7.12 µg/mL; in the experiment on UKF-NB-3 (UKF-NB-3, expt 2, read-out: miyabeacin IC50 concentration expt 2), 21 µg/mL; in the experiment on UKF-NB-3 (UKF-NB-3, expt 3, read-out: miyabeacin IC50 concentration expt 3) it was 15.3 µg/mL; with UKF-NB-3 (UKF-NB-3, mean of 3 expts, read-out: IC50 mean), 17.2 µM; with UKF-NB-3 (UKF-NB-3, mean of 3 expts, read-out: miyabeacin IC50 concentration mean), 14.5 µg/mL. The IC50 was 7.12 µg/mL in the experiment with UKF-NB-3 (neuroblastoma, UKF-NB-3, MTT 120 h, read-out: Miyabeacin IC50); 12.7 µg/mL (≈ 15 µM) in the experiment on EFO-21; 17.2 to 40.2 µM in experiment [1]; 20.2 µg/mL with COLO-704 (COLO-704, expt 1, read-out: miyabeacin IC50 concentration expt 1); 32.4 µg/mL in the experiment on COLO-704 (COLO-704, expt 2, read-out: miyabeacin IC50 concentration expt 2); 50.8 µg/mL with COLO-704 (COLO-704, expt 3, read-out: miyabeacin IC50 concentration expt 3). The IC50 stood at 40.2 µM with COLO-704 (COLO-704, mean of 3 expts, read-out: IC50 mean); 34.5 µg/mL with COLO-704 (COLO-704, mean of 3 expts, read-out: miyabeacin IC50 concentration mean); 20.2 µg/mL in the experiment on COLO-704 (ovarian, COLO-704, MTT 120 h, read-out: Miyabeacin IC50); 27 µg/mL (≈ 32 µM) in the experiment on BT-474. The viability at 20 µg/mL in the experiment on UKF-NB-3 (20 μg/mL, after 120 hours, UKF-NB-3, read-out: cell viability, relative to non-treated cells) was determined as 0%; in the experiment with UKF-NB-3^rVCR it was 4.22 ± 2.89%.
